Measurements: US8268805B2, “Use of ceramides for depigmenting the skin” (L'Oreal, priority 2005, dated 2012)

Columns and labels:
[1] = tested on: coculture of keratinocytes and melanocytes; assay: Modulatory effect on melanogenesis: inhibition of melanin synthesis (thiouracil/leucine incorporation ratio); format: cell-based; settings: ratio of thiouracil to leucine incorporation related to 100% of control, read-out: IC50 (concentration for which 50% of the melanin synthesis is inhibited)
Description: The modulatory effect on melanogenesis of the compounds tested was measured according to the method described in patent FR-A-2734825, and also in the article by R. Schmidt, P. Krien and M. Regnier, Anal. Biochem., 235(2), 113-18, 1996. This test is carried out on a coculture of keratinocytes and melanocytes.
For the compound tested, the inhibitory activity on melanin synthesis was determined by estimating the ratio of thiouracil incorporation to leucine incorporation, related to 100% of the control (the control corresponds to the test carried out without compound to be tested). The IC50 values (concentration for which 50% of the melanin synthesis is inhibited) were determined.
The test was also carried out with arbutin and lucinol (2-butylbenzene-1,3-diol), which are known depigmenting compounds.

[2] = tested on: tyrosinase activity of the melanocytes of human skin; settings: cited from earlier work

OC[C@H]1O[C@@H](Oc2ccc(O)cc2)[C@H](O)[C@@H](O)[C@@H]1O [Arbutin]
IC50 [1]: 209000 nM

CCCCCCCCCCCCCCCC(O)C(CO)NC(=O)C(O)CCCCCCCCCCCCCC (centres unmarked) [N-2-hydroxypalmitoyldihydrosphingosine]
IC50 [1]: 100 nM

CCCCCCCCCCCCC/C=C/[C@@H](O)[C@H](CO)NC(C)=O [N-acetyl-D-erythrosphingosine]
effect on the tyrosinase activity of the melanocytes of human skin [2]: has an effect

CCCCCCCC/C=C\CCCCCCCC(=O)NC(CO)C(O)CCCCCCCCCCCCCCC (centres unmarked) [N-oleoyldihydrosphingosine]
IC50 [1]: 100 nM

CCCCCCCCCCCCC/C=C/[C@@H](O)[C@@H](N)COP(=O)(O)O [sphingosine-1-phosphate]
effect on the tyrosinase activity of the melanocytes of human skin [2]: no effect
